# “Also recorded” adds a separate entry of the source. Structures can show the parent of a compound that is named as a salt. Where two headings read alike, the source gives them in different places.
# Columns and labels:
# TRIB2 [1] = biological target: T1, TRIB2 (Homo sapiens, UniProt Q92519); assay: TRIB2 kinase activity assay (Eurofins, 33P-ATP filter binding); type: biochemical; parameters: purchased Eurofins
# T1 sequence (Q92519 1-343): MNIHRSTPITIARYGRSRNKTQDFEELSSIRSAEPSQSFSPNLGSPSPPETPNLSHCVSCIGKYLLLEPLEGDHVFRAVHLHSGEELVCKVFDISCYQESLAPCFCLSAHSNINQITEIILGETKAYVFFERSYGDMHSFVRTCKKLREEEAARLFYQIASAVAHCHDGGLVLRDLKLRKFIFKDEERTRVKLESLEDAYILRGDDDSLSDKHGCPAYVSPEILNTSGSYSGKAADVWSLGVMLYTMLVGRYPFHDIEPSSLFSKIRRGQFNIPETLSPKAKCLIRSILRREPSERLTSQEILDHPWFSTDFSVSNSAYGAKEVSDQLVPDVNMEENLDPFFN
# Description: TRIB2 kinase activity assay was conducted in Eurofins. […] Afterward, the reaction was terminated with 0.5% phosphoric acid.
# K562 = assay: Assay for anticancer activity, cell viability (Cell Counting Kit-8); type: cell-based; conditions: K562 cells, 10 μM compound, 3 days
# Description: (§1) Assay for anticancer activity was conducted as follows. Corresponding cancer cells were seeded at a density of 4,000 cells/well into 96-well plates and stabilized for 24 hours. Thereafter, the cells in each well were treated with 10 μM of the each of the compounds for 3 days. Then, cell viability was assayed using Cell Counting Kit-8 from Dojindo.
# U937 = assay: as above; type: cell-based; conditions: U937 cells, 10 μM compound, 3 days
# Description: as §1
# YAP [2] = assay: Phosphorylation of YAP protein in liver cancer cells (FIG. 1); type: cell-based
# TRIB2 [3] = biological target: T1, TRIB2; assay: Phosphorylation of TRIB2 protein in liver cancer cells (FIG. 1); type: cell-based; parameters: endogenous in cells; host or cells: HepG2; conditions: liver cancer cell line HepG2, dose-dependent
# YAP [4] = assay: p-YAP level in ovarian cancer cell line A2780 (FIG. 1); type: cell-based
# HepG2 = assay: Assay for anticancer activity, cell viability (Cell Counting Kit-8); type: cell-based; conditions: for Cell viability (% of Con. 10 μM) HepG2: HepG2 cells, 10 μM compound, 3 days
# Description: as §1
# A549 = assay: as above; type: cell-based; conditions: A549 cells, 10 μM compound, 3 days
# Description: as §1
# [5] = human TRIB2, 15 μM gamma-33P-ATP, 120 minutes at room temperature, read-out: TRIB2 Kimase activity assay IC50
IC50 (TRIB2 [1]; [5]) [nM],SMILES,Cell viability (% of Con. 10 μM) K562 (K562),Cell viability (% of Con. 10 μM) U937 (U937),Cell viability (% of Con. 10 μM) HepG2 (HepG2),Cell viability (% of Con. 10 μM) A549 (A549),other results
10 to 100,"CC(C)(C)OC(=O)N1CCC(NC(=O)c2n[nH]c3ccc(-c4cccnc4F)cc23)CC1 [Compound 1, tert-butyl-4-(5-(2-fluoropyridin-3-yl)-1H-indazole-3-carboxamido)piperidine-1-carboxylate]",49 % of Con.,34 % of Con.,,,
10 to 100,"O=C(NC1CCNCC1)c1n[nH]c2ccc(-c3cccnc3F)cc12 [Compound 2, 5-(2-fluoropyridin-3-yl)-N-(piperidin-4-yl)-1H-indazole-3-carboxamide]",16 % of Con.,12 % of Con.,,,
10 to 100,"O=C(NC1CCNCC1)c1n[nH]c2ccc(-c3cccnc3)cc12 [Compound 4, N-(piperidin-4-yl)-5-(pyridin-3-yl)-1H-indazole-3-carboxamide]",41 % of Con.,50 % of Con.,,,

# Continued, molecule first:
SMILES,IC50 (TRIB2 [1]; [5]) [nM],Cell viability (% of Con. 10 μM) K562 (K562),Cell viability (% of Con. 10 μM) U937 (U937),Cell viability (% of Con. 10 μM) HepG2 (HepG2),Cell viability (% of Con. 10 μM) A549 (A549),other results
"O=C(Nc1ccncc1)c1n[nH]c2ccc(-c3cccnc3F)cc12 [Compound 17, 5-(2-fluoropyridin-3-yl)-N-(pyridin-4-yl)-1H-indazole-3-carboxamide]",1 to 10,,,15 % of Con.,17 % of Con.,"YAP protein degradation (YAP [2]): promote YAP protein degradation; inhibitory activity against YAP (in words) (YAP [2]): inhibitory activity against YAP; phosphorylation of YAP protein (YAP [2]; liver cancer cell line HepG2, dose-dependent, FIG. 1): decreases the phosphorylation; phosphorylation of TRIB2 protein (TRIB2 [3]): decreases the phosphorylation; level of p-YAP (YAP [4]): reduce the level of p-YAP; also recorded: has an inhibitory activity against YAP; inhibition of the growth of liver cancer cell line HepG2 (in words) (HepG2; HepG2): highly inhibitory"
"CC1(C)Cc2ccc(NC(=O)c3n[nH]c4ccc(-c5cccnc5F)cc34)cc2CN1 [Compound 71, N-(3,3-dimethyl-1,2,3,4-tetrahydroisoquinolin-7-yl)-5-(2-fluoropyridin-3-yl)-1H-indazole-3-carboxamide]",1 to 10,,,9 % of Con.,10 % of Con.,
"O=C(Nc1ccncc1)c1n[nH]c2ccc(-c3cnn(C4CCNCC4)c3)cc12 [Compound 73, 5-(1-(piperidin-4-yl)-1H-pyrazol-4-yl)-N-(pyridin-4-yl)-1H-indazole-3-carboxamide hydrochloride]",,,,36 % of Con.,49 % of Con.,IC50 (TRIB2 [1]): 10 to 100 nM
